Experimental data from patent publication US5747511A, “Benzothiophene analogs as antiviral agents” (SRI International, priority 1995, dated 1998).

What was measured:
MRC-5 cells = assay: evidence of cytotoxicity by microscopy after 72 hours; format: cell-based; design: unit not given beside the values; details: 37° C., microscopic cytotoxicity
Experimental: (§1) Continuous passaged MRC-5 cells obtained from the American Type Culture Collection (Bethesda, Md.) were used for testing of herpes-type virus, with growth medium consisting of Minimum Essential Medium (MEM) supplemented with 0.1% NaHCO3 and […] gentamicin.
(§2) To a 96 well microtiter plate containing an established 24 hour monolayer of cells from which the medium has been decanted was added 0.1 mL of varying (one-half log10) concentrations of test compound, which incubated on the cell 15 minutes, after which 0.1 mL of virus in a concentration of 320 cell culture 50% infectious doses (CCID50)/0.1 mL was added. The plate was covered with plastic wrap and incubated at 37° C. The cells were examined microscopically after 72 hours for evidence of cytotoxicity and for viral cytopathic effect (CPE).

cytomegalovirus = assay: in vitro antiviral evaluation, viral cytopathic effect (CPE) by microscopy after 72 hours; format: cell-based; details: TI column of Table 1 (equals CD50/ED50); 4320 min
Experimental: The compounds prepared in the previous Examples were evaluated in vitro as antiviral agents against cytomegalovirus, as follows.
The herpes virus strain employed was Strain McCrae of type 1 herpes (thymidine kinase positive virus) (HSV-1TK^+). This strain was prepared and titered in MA-104 cells and frozen at -90° C. until use. Also used were strain HF (HSV-1TK^-), strain E194 (HSV-2), NJB strain (MCMV), and strain AD169 (HCMV).
as §1, §2

Question: `Nc1cc2ccncc2c2sc3ccccc3c12` [Compound 1] was tested. Which CD50 (MRC-5 cells) did it give?
Answer: > 10

Question: And the TI (cytomegalovirus)?
Answer: > 100
